Among the data in ChEMBL document CHEMBL4619804, “Target-Based Identification and Optimization of 5-Indazol-5-yl Pyridones as Toll-like Receptor 7 and 8 Antagonists Using a Biochemical TLR8 Antagonist Competition Assay” (J Med Chem, 2020) are IC50 and Kd values, retold here.

pIC50, pKd: −log10 of the molar value.

For one assay, the target named is T1, Toll-like receptor 9 (Homo sapiens, UniProt Q9NR96).
T1 sequence (Q9NR96 whole entry): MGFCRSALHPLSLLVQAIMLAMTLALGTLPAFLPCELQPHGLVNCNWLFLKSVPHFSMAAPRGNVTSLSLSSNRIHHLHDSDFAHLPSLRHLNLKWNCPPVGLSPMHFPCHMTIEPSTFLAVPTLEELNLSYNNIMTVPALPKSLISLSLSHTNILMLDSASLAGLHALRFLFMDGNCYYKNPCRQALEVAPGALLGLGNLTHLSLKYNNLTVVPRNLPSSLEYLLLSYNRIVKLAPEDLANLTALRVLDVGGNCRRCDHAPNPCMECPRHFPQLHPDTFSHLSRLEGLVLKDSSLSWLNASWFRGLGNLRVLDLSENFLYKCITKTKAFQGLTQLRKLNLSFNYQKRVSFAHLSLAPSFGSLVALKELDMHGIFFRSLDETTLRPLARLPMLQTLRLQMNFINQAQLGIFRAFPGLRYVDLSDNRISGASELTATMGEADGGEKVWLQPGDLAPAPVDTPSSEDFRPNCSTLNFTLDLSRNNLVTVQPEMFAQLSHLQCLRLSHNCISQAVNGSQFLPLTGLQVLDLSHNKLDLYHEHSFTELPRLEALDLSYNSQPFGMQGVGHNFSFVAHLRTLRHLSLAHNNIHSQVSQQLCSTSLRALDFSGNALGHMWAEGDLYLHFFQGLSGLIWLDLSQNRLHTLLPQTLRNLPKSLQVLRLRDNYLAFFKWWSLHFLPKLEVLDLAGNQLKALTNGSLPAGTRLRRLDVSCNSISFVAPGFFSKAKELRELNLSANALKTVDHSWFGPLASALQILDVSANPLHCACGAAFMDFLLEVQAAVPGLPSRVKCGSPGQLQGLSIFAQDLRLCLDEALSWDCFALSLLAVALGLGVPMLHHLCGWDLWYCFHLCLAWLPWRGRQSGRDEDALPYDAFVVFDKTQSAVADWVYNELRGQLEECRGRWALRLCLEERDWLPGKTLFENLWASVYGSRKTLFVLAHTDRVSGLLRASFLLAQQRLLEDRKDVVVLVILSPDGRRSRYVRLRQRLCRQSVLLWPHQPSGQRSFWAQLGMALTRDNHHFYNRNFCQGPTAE
Description: Antagonist activity at TLR9 in human PBMC assessed as inhibition of ODN2216-induced IFNalpha production preincubated for 30 mins followed by ODN2216 addition and measured after 20 hrs by alphaLISA. In kind it is cell-based.

The next assay addresses T2, Toll-like receptor 7 (Homo sapiens, UniProt Q9NYK1).
T2 sequence (Q9NYK1 whole entry): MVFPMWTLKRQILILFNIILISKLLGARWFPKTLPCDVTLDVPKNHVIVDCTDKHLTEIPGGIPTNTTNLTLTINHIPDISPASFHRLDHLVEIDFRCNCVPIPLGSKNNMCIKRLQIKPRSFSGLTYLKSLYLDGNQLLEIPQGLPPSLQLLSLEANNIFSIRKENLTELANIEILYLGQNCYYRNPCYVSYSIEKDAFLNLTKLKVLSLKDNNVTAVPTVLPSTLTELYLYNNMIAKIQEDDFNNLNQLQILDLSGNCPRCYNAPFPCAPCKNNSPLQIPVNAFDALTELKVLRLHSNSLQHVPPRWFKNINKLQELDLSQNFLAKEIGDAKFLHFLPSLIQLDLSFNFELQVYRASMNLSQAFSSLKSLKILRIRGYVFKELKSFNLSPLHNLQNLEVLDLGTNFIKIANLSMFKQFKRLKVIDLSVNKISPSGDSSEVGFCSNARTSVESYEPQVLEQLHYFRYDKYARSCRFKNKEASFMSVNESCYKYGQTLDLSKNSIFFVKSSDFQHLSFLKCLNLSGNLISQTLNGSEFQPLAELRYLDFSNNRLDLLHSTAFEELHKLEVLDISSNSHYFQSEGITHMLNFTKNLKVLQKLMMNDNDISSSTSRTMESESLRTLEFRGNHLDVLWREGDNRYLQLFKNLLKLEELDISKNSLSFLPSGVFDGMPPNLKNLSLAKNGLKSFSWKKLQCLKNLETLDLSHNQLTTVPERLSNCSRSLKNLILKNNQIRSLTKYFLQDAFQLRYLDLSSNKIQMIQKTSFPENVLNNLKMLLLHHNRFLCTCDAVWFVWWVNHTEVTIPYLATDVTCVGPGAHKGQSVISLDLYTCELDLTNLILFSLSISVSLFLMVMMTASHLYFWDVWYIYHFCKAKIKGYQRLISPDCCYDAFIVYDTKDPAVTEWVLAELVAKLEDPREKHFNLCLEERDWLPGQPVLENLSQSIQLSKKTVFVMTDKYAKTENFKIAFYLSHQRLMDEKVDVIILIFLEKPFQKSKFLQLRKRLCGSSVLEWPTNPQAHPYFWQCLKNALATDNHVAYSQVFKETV
Briefly: Antagonist activity at TLR7 in human PBMC assessed as inhibition of DOTAP-ssRNA40 induced IFNalpha production preincubated for 30 mins followed by ssRNA40 addition measured after 20 hrs by alphaLISA. In kind it is cell-based. In general terms: Alpha assays give light when donor and acceptor beads are brought close together.

For another assay, the target named is Cytochrome P450 3A4 (Homo sapiens, UniProt P08684). Briefly: Inhibition of CYP3A4 (unknown origin). The assay is classed as ADME.
Cytochrome P450 3A4, sequence (P08684 whole entry): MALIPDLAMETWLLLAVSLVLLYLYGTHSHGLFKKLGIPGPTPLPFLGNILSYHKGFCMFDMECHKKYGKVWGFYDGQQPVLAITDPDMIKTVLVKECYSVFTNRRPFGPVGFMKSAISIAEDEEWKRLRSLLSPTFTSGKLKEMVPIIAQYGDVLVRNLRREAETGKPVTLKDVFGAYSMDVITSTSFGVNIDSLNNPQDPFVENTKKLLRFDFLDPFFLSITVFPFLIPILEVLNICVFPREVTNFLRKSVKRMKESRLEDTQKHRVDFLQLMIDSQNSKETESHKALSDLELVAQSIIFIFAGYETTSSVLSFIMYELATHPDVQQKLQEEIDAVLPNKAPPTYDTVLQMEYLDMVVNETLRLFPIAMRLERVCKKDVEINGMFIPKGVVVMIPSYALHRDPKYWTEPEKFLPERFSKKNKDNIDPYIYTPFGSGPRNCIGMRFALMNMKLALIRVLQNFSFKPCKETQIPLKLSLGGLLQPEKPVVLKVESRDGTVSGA
A further assay addresses Toll-like receptor 4 (Homo sapiens, UniProt O00206). Description: Antagonist activity at TLR4 in human PBMC assessed as inhibition of LPS-induced TNFalpha production preincubated for 30 mins followed by LPS addition and measured after 20 hrs by HTRF assay. The assay is classed as cell-based.
The target of assay [1] is T3, Toll-like receptor 8 (Homo sapiens, UniProt Q9NR97).
T3 sequence (Q9NR97 whole entry): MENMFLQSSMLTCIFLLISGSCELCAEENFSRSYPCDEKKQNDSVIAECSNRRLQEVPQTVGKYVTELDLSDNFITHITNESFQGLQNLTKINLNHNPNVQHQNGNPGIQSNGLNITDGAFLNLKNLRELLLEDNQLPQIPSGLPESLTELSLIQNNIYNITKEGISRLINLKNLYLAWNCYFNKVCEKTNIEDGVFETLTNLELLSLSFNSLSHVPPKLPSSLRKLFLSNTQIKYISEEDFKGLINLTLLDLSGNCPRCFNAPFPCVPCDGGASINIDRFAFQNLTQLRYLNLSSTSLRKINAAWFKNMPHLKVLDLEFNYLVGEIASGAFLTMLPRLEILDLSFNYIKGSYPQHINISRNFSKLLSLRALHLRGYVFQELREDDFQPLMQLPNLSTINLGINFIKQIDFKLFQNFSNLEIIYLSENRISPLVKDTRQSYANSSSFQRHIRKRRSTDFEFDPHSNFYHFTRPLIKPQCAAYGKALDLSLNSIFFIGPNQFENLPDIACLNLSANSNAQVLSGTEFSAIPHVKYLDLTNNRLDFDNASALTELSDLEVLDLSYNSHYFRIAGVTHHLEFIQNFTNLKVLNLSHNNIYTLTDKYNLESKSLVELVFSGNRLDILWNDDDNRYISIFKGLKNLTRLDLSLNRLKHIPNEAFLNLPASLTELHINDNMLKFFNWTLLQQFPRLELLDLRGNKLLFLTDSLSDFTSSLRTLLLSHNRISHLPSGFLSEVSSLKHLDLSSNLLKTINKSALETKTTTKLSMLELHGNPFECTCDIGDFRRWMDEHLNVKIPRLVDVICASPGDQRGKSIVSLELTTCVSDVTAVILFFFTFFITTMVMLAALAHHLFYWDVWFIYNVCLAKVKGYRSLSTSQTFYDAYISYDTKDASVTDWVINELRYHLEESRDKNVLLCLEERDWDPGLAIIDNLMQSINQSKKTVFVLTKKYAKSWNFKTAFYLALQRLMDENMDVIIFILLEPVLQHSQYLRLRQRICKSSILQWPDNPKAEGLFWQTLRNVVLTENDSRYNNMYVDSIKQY
Description: biochemical.

The target of assay [2] is T3, Toll-like receptor 8. Briefly: biochemical. This is another data set of the same source.
Description: Binding affinity to human TLR8 extracellular domain (27 to 827 residues) expressed in Drosophila S2 cells by fluorescence polarization assay

Toll-like receptor 4, sequence (O00206 whole entry): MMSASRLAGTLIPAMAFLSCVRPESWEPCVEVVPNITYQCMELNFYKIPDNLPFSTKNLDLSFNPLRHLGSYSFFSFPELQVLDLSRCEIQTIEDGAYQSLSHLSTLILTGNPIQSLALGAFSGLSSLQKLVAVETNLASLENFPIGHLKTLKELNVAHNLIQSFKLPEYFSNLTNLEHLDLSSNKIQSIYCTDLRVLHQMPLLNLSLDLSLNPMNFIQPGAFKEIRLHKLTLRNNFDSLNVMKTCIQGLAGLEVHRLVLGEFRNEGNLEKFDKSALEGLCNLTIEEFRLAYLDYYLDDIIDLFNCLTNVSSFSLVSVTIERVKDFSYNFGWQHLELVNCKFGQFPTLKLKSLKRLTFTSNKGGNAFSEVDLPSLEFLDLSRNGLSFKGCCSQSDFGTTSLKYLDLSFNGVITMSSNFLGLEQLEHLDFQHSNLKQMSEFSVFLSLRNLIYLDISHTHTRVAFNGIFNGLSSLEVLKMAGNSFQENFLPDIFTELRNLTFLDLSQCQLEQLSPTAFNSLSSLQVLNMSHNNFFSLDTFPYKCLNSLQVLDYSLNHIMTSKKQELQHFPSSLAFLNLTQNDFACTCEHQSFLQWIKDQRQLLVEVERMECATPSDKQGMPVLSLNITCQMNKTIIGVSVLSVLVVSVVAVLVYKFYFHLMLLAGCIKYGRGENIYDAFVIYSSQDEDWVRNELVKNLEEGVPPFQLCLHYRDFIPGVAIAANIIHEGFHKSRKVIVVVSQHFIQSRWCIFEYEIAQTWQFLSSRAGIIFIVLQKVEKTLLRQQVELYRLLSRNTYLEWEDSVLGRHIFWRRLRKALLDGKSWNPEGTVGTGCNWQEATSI

As to `Cc1cc(-c2cc(C)c3nn(C4CCNCC4)cc3c2)cn(C)c1=O`, on Toll-like receptor 9, the pIC50 – broadly, the IC50 on a negative log10 scale, so that one unit is a factor of ten – is 6.70.
On to `Cn1cc(-c2ccc3nc(N4CCN(C5CCC5)CC4)ncc3c2)ccc1=O`, for which the pIC50 on Toll-like receptor 9 was 5.66.
On to `Cc1cc(-c2ccc(=O)n(C)c2)cc2cnc(N3CCN(C(C)C)CC3)nc12`, for which the pIC50 on Toll-like receptor 9 and on Toll-like receptor 7 was less than 5.00 each time.
As for `Cc1cc(-c2ccc(=O)n(C)c2)cc2cn(C3CCNCC3)nc12`, the negative logarithm of the IC50 (pIC50) at Toll-like receptor 9 was 5.70.
Consider `Cc1cc(-c2ccc(=O)n(C)c2C)cc2cn(C3CCNCC3)nc12`, for which the negative-log IC50 (pIC50) was less than 5.00 at Toll-like receptor 9, less than 4.70 against Cytochrome P450 3A4 and less than 5.00 at Toll-like receptor 4.
With `Cc1cc(-c2ccnc3[nH]ncc23)cnc1OCC12CCC(N)(CC1)CC2`, on Toll-like receptor 8 [1], the pIC50 was 7.17.
For the molecule `Cc1cc(=O)n(C)cc1-c1cc(C)c2nn(C3CCNCC3)cc2c1`, the negative-log IC50 (pIC50) was 5.14 at Toll-like receptor 9 and less than 5.38 at Toll-like receptor 4.
`CC[N+]1=C(/C=C/C=C/C=C2/N(CCCCCC(=O)NC34CCC(COc5ncc(-c6ccnc7[nH]ncc67)cc5C)(CC3)CC4)c3ccc(S(=O)(=O)O)cc3C2(C)C)C(C)(C)c2cc(S(=O)(=O)O)ccc21`: the negative logarithm of the Kd (pKd) – broadly, the Kd on a negative log10 scale, so that one unit is a factor of ten – on Toll-like receptor 8 [2] is 7.19.
